Literature values as cited in patent US20140350097A1, “TREATMENT OF HYPOTENSION ASSOCIATED WITH HEMODIALYSIS” (priority 2013, published 2014).

Columns and labels:
[1] = system: normal animals and animals with hypotensive shock; settings: cited from earlier work
[2] = system: LPS-induced hypotension in animals; settings: intravenous injection; cited from earlier work

Compound: CNC(=N)NCCC[C@H](N)C(=O)O [N-monomethyl-L-arginine, N^G-monomethyl-L-arginine]
- effect on blood pressure [1]: can cause hypertension
- effect on LPS-induced hypotension [2]: reverse LPS-induced hypotension
